Data on one molecule can be found in US10624336B2, “In-vitro embryonic culture medium comprising an inhibitor of cathepsin L and the use of the same in embryo cryopreservation” (BEIJING UNIVERSITY OF AGRICULTURE, priority 2016, dated 2020).

The test has as its system normally hatched blastocysts from mice. In words: Thawed recovery rate of normally hatched mouse blastocysts incubated with E-64d before programmed freezing. The following applies: for the thawed recovery rate (%): 2 h incubation before freezing, counted after 24-hour recovery, mean ± SD. The format is cell-based. As to the method:
Female mice with pale pink vulvas were randomized and intraperitoneally injected with pregnant mare serum gonadotrophin (PMSG) at a dosage of 10 IU/mouse. After 48 hours, the female mice were further injected with human chorionic gonadotropin (hCG) at a dosage of 10 IU/mouse, and then were immediately housed in a cage with adult male mice at a ratio of 1:1 overnight for mating. The mice were checked for mating at 8 a.m. next day and injected with anti-PMSG (A-PMSG) at a dosage of 10 IU/mouse once the vaginal suppository was observed. The mice were sacrificed at 9 a.m. on Day 5 after the vaginal suppository was observed. The uteruses on both sides of the mice were removed and flushed with the PBS working solution to obtain normally hatched blastocysts.
The normally hatched blastocysts as obtained (about 100 blastocysts) were rinsed with 100 μl PBS solution for three times and then with 100 μl CZB working solution for another three times. Afterwards, the blastocysts were transferred into drops of the E-64d-CZB working solutions at 0, 0.5, 1, 1.5, 2, 3, 5, and 10 μmol/L, and then incubated in vitro in an incubator at 37° C., 5% CO2 in air, and 100% humidity for 2 hours.
The incubated embryos were washed twice with the PBS working solution, then subjected to PBS removal through a three-step process, and equilibrated for 5 min in a freezing solution (Bioniche, ViGRO™, ETHYLENE GLYCOL FREEZE (with Sucrose), Lot:150206-2P). Afterwards, the embryos were placed in 0.25 ml plastic straws. Then the straws containing the embryos were placed in a control rate freezer, cooled to −5° C. at a rate of 1° C./min, and then equilibrated for 10 min. During equilibration, the straws containing the embryos were clamped with pre-cooled forceps at the upper end for 3-5 seconds, thereby the freezing solution forming ice crystals, that is to say, ice seeding was completed. The straws containing the embryos were equilibrated for another 10 minutes, and then cooled down to −35° C. at a rate of 0.3° C./min. Subsequently, the frozen straws were placed in liquid nitrogen.
During thawing, the frozen straws were removed from the liquid nitrogen, gently shaken at room temperature for 5-10 seconds, placed in water at 35° C. for 10-15 seconds, and then removed from the water. The plugs at both ends of the straws were cut off, and then the embryos in the straws were placed in watch glasses, and subjected to the removal of the freezing solution through a three-step process. After recovery by thawing, the embryos were placed into drops of equilibrated fresh CZB for 24-hour recovery. After 24 hours, the thawed recovery rate was counted.
The three-step process for PBS removal as mentioned above was specifically as follows. Before the embryos were immersed in the freezing solution and then placed in straws for freezing, they were washed with 100 μl of the drops of the following mixed solutions sequentially (3-5 min for each mixed solution): the freezing solution ⅓+PBS ⅔, the freezing solution ½+PBS ½, and the freezing solution ⅔+PBS ⅓.
The three-step process for the removal of the freezing solution as mentioned above was specifically as follows. The embryos were washed with 100 μl of the drops of the following mixed solutions sequentially (3-5 min for each mixed solution): the freezing solution ⅔+PBS ⅓, the freezing solution ½+PBS ½, and the freezing solution ⅓+PBS ⅔.
All the experimental data was subjected to Chi-square analysis by SPSS 21.0 statistical software.

The structures appear in SMILES notation. Several values for one entry are separate records, joined by “and”; a condition that tells them apart may be missing. Equal entries are not always repeated. Marks after values point to notes of the source that are not given here.

With `CCOC(=O)[C@H]1O[C@@H]1C(=O)N[C@@H](CC(C)C)C(=O)NCCC(C)C` [E-64d, ethyl (2S,3S)-3-[[(2S)-4-methyl-1-(3-methylbutylamino)-1-oxopentan-2-yl]carbamoyl]oxirane-2-carboxylate], the “the thawed recovery rate (%)” value reads like this: (E-64d 0.5 μmol/L in CZB medium) 75.35 ± 3.51^b %; (E-64d 1 μmol/L in CZB medium) 80.67 ± 5.40^Aa %; (E-64d 1.5 μmol/L in CZB medium) 79.45 ± 4.28^Aa %; (E-64d 2 μmol/L in CZB medium) 78.65 ± 2.56^b %; (E-64d 3 μmol/L in CZB medium) 76.26 ± 5.32^b %; (E-64d 5 μmol/L in CZB medium) 72.64 ± 2.13^B %. In addition, the “the thawed recovery rate (%)” value (E-64d 10 μmol/L in CZB medium) was 62.58% and 62.58 ± 3.72^B %. Moreover, the “thawed recovery rate compared with the control (in words)” value (E-64d 5 μmol/L) is reported as “nearly comparable to that in absence of the inhibitor” and the “thawed recovery rate compared with the control (in words)” value (E-64d 0.5-3 μmol/L) was “improved to different extents as compared with the control”. For the same molecule, the “decrease of the thawed recovery rate as compared with the control” value (E-64d 10 μmol/L) is given as “about 15%”. The “improvement of the thawed recovery rate as compared with the control” value (E-64d 1 or 1.5 μmol/L) is recorded as “about 10%”.
